Where two headings read alike, the source gives them in different places.
How the values were obtained:
Experiment in all cases: CellTiter-Glo, NCI60 panel
Assay type in all cases: cell-based
[1] = test system: A549; settings: NSCL; for GI50: Homo sapiens
Text: (§1) Identification of tumor types that are the most sensitive to the KSP inhibitors of the present invention can be accomplished using an unbiased approach that uses several cell-based assays. The assays chosen were as follows: • CellTiter-Glo®. This is an assay designed to measure ATP concentration in a cell culture, and can be correlated to cell number. Briefly CellTiter-Glo® (Promega Corporation) is a homogeneous method using the single CellTiter-Glo® reagent to detect ATP wherein ATP in the assay drives the activity of a thermostable luciferase to create a luminescent signal which can then be measured and correlated with the number of viable cells. Briefly, for adherent cells, 1,000 to 5,000 cells/well were plated in 96-well plates (100 μl/well) and let to adhere for 24 hours before being treated with drug. For non-adherent cells, 1,000 to 10,000 cells/well were plated in 96-well plates (100 μl/well) and immediately treated with drug. Drug dilutions were prepared in DMSO at 1000 times the final concentration. These dilutions were then diluted 1/100 in growth media before being added to the cells (11 μl/well) to achieve the desired final concentration. After 48 h in a 37° C. tissue culture incubator, the plates were processed for the CellTiter-Glo®assay according to the manufacturer's instructions. Protocol for a 72 hour cell proliferation assay: The 72 hour assay was performed the same way as the 48 hour assay except for the following modifications: For adherent cells, 500 to 5,000 cells/well were plated in 96-well plates (90 μl/well cell growth media) and left to adhere for 24 hours before being treated with drug. For non-adherent cells, 1,000 to 10,000 cells/well were plated in 96-well plates (90 μl/well cell growth media) and immediately treated with drug. Data values presented represent the concentration of test compound required for a 50% reduction in growth. • LDH release. The Cytotoxicity Detection KitPLUS (LDH) assay (Roche Diagnostics, Manheim, Germany) measures the amount of LDH released in the media by dying cells; LDH catalyzes the conversion of lactate into pyruvate. The enzymatic reaction is coupled to a chemical reaction that uses a tetrazolium salt to form a formazan that is red and can be detected by its absorbance at 490 nm. This assay measures the amount of cell death after drug treatment. Cells were plated at 10,000 cells/well in 96-well plates (100 μl/well). Adherent cells were let to adhere for 24 hours before being treated with drug, whereas non-adherent cells were immediately treated with drug. Drug dilutions were prepared in DMSO at 1000 times the final concentration. These dilutions were then diluted 1/100 in growth media before being added to the cells (11 μl/well) to achieve the desired final concentration. After 48 h in a 37° C. tissue culture incubator, the plates were processed for the Cytotoxicity Detection KitPLUS (LDH) assay according to the manufacturer's instructions. The media only values were subtracted from all the data points before analysis. Data values presented correspond to the compound concentration wherein LDH output is at half maximal level. • Caspase-Glo® 3/7. The Caspase-Glo® 3/7 Assay (Promega Corporation) is a homogeneous luminescent assay that measures caspase-3/7 activities. The assay provides a proluminescent caspase-3/7 DEVD-aminoluciferin substrate and a thermostable luciferase in a reagent optimized for caspase-3/7 activity, luciferase activity and cell lysis. Adding the single Caspase-Glo® 3/7 Reagent results in cell lysis, followed by caspase cleavage of the substrate. This liberates free aminoluciferin, which is consumed by the luciferase, generating a luminescent signal. The signal is proportional to caspase-3/7 activity. Data values presented correspond to the compound concentration wherein caspase 3/7 activity is at half maximal level. […]

[2] = test system: CAKI-1; settings: Renal; for GI50: Homo sapiens
Text: as §1

[3] = test system: EKVX; settings: NSCL; for GI50: Homo sapiens
Text: as §1

[4] = test system: HL-60; settings: Leukemia; for GI50: Homo sapiens
Text: as §1

[5] = test system: LOX IMVI; settings: Melanoma; for GI50: Homo sapiens
Text: as §1

[6] = test system: MALME-3M; settings: Melanoma; for GI50: Homo sapiens
Text: as §1

[7] = test system: MDA-MB-231; settings: Breast; for GI50: Homo sapiens
Text: as §1

[8] = test system: NCI-H23; settings: NSCL; for GI50: Homo sapiens
Text: as §1

[9] = test system: NCI-H322M; settings: NSCL; for GI50: Homo sapiens
Text: as §1

[10] = test system: NCI/ADR-RES; settings: Ovarian; for GI50: Homo sapiens
Text: as §1

[11] = test system: OVCAR-8; settings: Ovarian; for GI50: Homo sapiens
Text: as §1

[12] = test system: RXF 393; settings: Renal; for GI50: Homo sapiens
Text: as §1

[13] = test system: SF-268; settings: CNS; for GI50: Homo sapiens
Text: as §1

[14] = test system: SK-MEL-5; settings: Melanoma; for GI50: Homo sapiens
Text: as §1

[15] = test system: SR; settings: Leukemia; for GI50: Homo sapiens
Text: as §1

[16] = test system: UACC-257; settings: Melanoma; for GI50: Homo sapiens
Text: as §1

[17] = GI50 in nM, read-out: Log(GI50) (converted)

CC(C)(C)[C@H](c1nc(-c2cc(F)ccc2F)cn1Cc1ccccc1)N(CC[C@H](N)CF)C(=O)CO [Compound IIa]
GI50 [1, 17]: 10 nM | GI50 ([1]; read-out: GI50): 10 nM | Differential vs mean Log(GI50) [1]: −0.669 | GI50 [2, 17]: 10 nM | GI50 ([2]; read-out: GI50): 10 nM | Differential vs mean Log(GI50) [2]: −0.669 | GI50 [3, 17]: 10 nM | GI50 ([3]; read-out: GI50): 10 nM | Differential vs mean Log(GI50) [3]: −0.669 | GI50 [4, 17]: 0.165 nM | GI50 ([4]; read-out: GI50): 0.165 nM | Differential vs mean Log(GI50) [4]: 1.114 | GI50 [5, 17]: 10 nM | GI50 ([5]; read-out: GI50): 10 nM | Differential vs mean Log(GI50) [5]: −0.669 | GI50 [6, 17]: 10 nM | GI50 ([6]; read-out: GI50): 10 nM | Differential vs mean Log(GI50) [6]: −0.669 | Differential vs mean Log(GI50) [7]: 0.809 | GI50 [7, 17]: 0.333 nM | GI50 ([7]; read-out: GI50): 0.333 nM | GI50 [8, 17]: 0.223 nM | GI50 ([8]; read-out: GI50): 0.223 nM | Differential vs mean Log(GI50) [8]: 0.983 | GI50 [9, 17]: 10 nM | GI50 ([9]; read-out: GI50): 10 nM | Differential vs mean Log(GI50) [9]: −0.669 | GI50 [10, 17]: 4.18 nM | GI50 ([10]; read-out: GI50): 4.18 nM | Differential vs mean Log(GI50) [10]: −0.290 | GI50 [11, 17]: 0.324 nM | GI50 ([11]; read-out: GI50): 0.324 nM | Differential vs mean Log(GI50) [11]: 0.821 | GI50 [12, 17]: 10 nM | GI50 ([12]; read-out: GI50): 10 nM | Differential vs mean Log(GI50) [12]: −0.669 | Differential vs mean Log(GI50) [13]: −0.669 | GI50 [13, 17]: 10 nM | GI50 ([13]; read-out: GI50): 10 nM | GI50 [14, 17]: 10 nM | GI50 ([14]; read-out: GI50): 10 nM | Differential vs mean Log(GI50) [14]: −0.669 | GI50 [15, 17]: 0.095 nM | GI50 ([15]; read-out: GI50): 0.095 nM | Differential vs mean Log(GI50) [15]: 1.353 | GI50 [16, 17]: 10 nM | GI50 ([16]; read-out: GI50): 10 nM | Differential vs mean Log(GI50) [16]: −0.669
